# Data published in patent US6689806B1, “Indolinone compounds as kinase inhibitors” (Sugen, Inc., priority 1999, dated 2004).
# Like-named read-outs stand apart in the source and are kept apart here.
# How the values were obtained:
# EGFR = EGFR (Homo sapiens, UniProt P00533); assay: Biochemical EGFR assay (ELISA); design: A431 cell lysate; endogenous in cells; host or cells: A431
# Experimental: This assay measures the in vitro kinase activity of EGFR using ELISA.
# 1. Coat Coming 96 well ELISA plates with 0.5 μg SUMOl in 100 μL PBS per well, store overnight at 4° C.
# 5. Dilute lysate in PBS (7 μg lysate/100 μL PBS).
# (§1) 6. Add 100 μL of diluted lysate to each well. Shake at room temperature for 60 min.
# 8. Add 120 μL TBS to ELISA plate containing captured EGFR.
# 9. Dilute test compound 1:10 in TBS in 96-well polypropylene plates (ie. 10 μL compound+90 μL TBS).
# 10. Add 13.5 μL diluted test compound to ELISA plate.
# 13. After 5 minutes, stop reaction by adding 16.5 μL of 200 mM EDTA (pH 8.0) to each well, shaking continuously. After the EDTA has been added, shake for 1 mm.
# (§2) 15. Add 100 μL anti-phosphotyrosine (1:3000 dilution in TBST) per well. Incubate 30-45 min. at room temperature, with shaking.
# (§3) 17. Add 100 μL Biosource Goat anti-rabbit IgG peroxidase conjugate (1:2000 dilution in TBST) to each well. Incubate 30 min. at room temperature, with shaking.
# (§4) 19. Add 100 μL of ABTS/H2O2 solution to each well.
# 22. Read assay on Dynatech MR7000 ELISA reader. Test Filter: 410 nM Reference Filter: 630 Nm.
# Her2 = target: T1, Her2 (Homo sapiens, UniProt P04626); assay: HER-2 ELISA: EGF receptor-HER2 chimeric receptor assay in whole cells (HER2 kinase); type: cell-based; conditions: NIH3T3 cells with EGFR/HER2 chimeric receptor, phosphotyrosine ELISA
# T1 construct: fused on or other part: P00533 (Epidermal growth factor receptor)
# T1 sequence (P04626 676-1255 limits assumed): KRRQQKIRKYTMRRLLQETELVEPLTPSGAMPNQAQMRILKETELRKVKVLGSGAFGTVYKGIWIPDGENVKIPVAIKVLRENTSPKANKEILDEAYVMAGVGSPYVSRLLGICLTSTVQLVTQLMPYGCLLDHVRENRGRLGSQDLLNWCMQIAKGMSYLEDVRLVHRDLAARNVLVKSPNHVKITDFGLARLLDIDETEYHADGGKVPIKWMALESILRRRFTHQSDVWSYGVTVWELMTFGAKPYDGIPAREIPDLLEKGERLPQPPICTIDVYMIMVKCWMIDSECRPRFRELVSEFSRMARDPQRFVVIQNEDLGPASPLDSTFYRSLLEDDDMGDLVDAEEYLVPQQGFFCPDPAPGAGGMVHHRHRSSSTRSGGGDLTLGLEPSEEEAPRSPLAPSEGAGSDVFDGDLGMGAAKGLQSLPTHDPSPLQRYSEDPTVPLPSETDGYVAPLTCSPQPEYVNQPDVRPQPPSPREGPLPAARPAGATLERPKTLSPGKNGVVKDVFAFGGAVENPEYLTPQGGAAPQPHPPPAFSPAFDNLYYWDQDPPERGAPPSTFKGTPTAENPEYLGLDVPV
# Experimental: Assay 1: EGF Receptor-HER2 Chimeric Receptor Assay In Whole Cells.
# HER2 kinase activity in whole EGFR-NIH3T3 cells was measured as described below:
# 1. An NIH3T3 cell line overexpressing a chimeric receptor containing the EGFR extracellular domain and intracellular HER2 kinase domain can be used for this assay.
# 3. Resuspend cells in seeding medium (DMEM, 0.5% bovine serum), and count the cells using trypan blue. Viability above 90% is acceptable. Seed cells in DMEM medium (0.5% bovine serum) at a density of 10,000 cells per well, 100 μL per well, in a 96 well microtiter plate. Incubate seeded cells in 5% CO2 at 37° C. for about 40 hours.
# 1. Check seeded cells for contamination using an inverted microscope. Dilute drug stock (10 mg/mL in DMSO) 1:10 in DMEM medium, then transfer 5 μL to a TBST well for a final drug dilution of 1:200 and a final DMSO concentration of 1%. Control wells receive DMSO alone. Incubate in 5% CO2 at 37° C. for two hours.
# 2. Prepare EGF ligand: dilute stock EGF in DMEM so that upon transfer of 10 μL dilute EGF (1:12 dilution), 100 nM final concentration is attained.
# 4. After 120 minutes incubation with drug, add prepared […] ligand to cells, 10 μL per well, to a final concentration of 100 nM. Control wells receive DMEM alone. Incubate, shaking, at room temperature, for 5 minutes.
# 5. Remove drug, EGF, and DMEM. Wash cells twice with PBS. Transfer HNTG* to cells, 100 μL per well. Place on ice for 5 minutes. Meanwhile, remove blocking buffer from other ELISA plate and wash with TBST as described above.
# 6. With a pipette tip securely fitted to a micropipettor, scrape cells from plate and homogenize cell material by repeatedly aspirating and dispensing the HNTG* lysis buffer. Transfer lysate to a coated, blocked, and washed ELISA plate. Incubate shaking at room temperature for one hour.
# 7. Remove lysate and wash 4 times with TBST. Transfer freshly diluted anti-Ptyr antibody to ELISA plate at 100 μL per well. Incubate shaking at room temperature for 30 minutes in the presence of the anti-Ptyr antiserum (1:3000 dilution in TBST).
# 8. Remove the anti-Ptyr antibody and wash 4 times with TBST. Transfer the freshly diluted TAGO anti-rabbit IgG antibody to the ELISA plate at 100 μL per well. Incubate shaking at room temperature for 30 minutes (anti-rabbit IgG antibody: 1:3000 dilution in TBST).
# 9. Remove TAGO detection antibody and wash 4 times with TBST. Transfer freshly prepared ABTS/H2O2 solution to ELISA plate, 100 μL per well. Incubate shaking at room temperature for 20 minutes. (ABTS/H2O2 solution: 1.0 μL 30% H2O2 in 10 mL ABTS stock).
# 10. Stop reaction by adding 50 μL 5N H2SO4 (optional), and determine O.D. at 410 nm.
# 11. The maximal phosphotyrosine signal is determined by subtracting the value of the negative controls from the positive controls. The percent inhibition of phosphotyrosine content for extract-containing wells is then calculated, after subtraction of the negative controls.
# PDGFR = PDGFR (Homo sapiens, UniProt P09619); assay: Biochemical PDGFR assay (ELISA); design: expressed in transfected cells; host or cells: NIH 3T3
# PDGFR, sequence (P09619 33-1106): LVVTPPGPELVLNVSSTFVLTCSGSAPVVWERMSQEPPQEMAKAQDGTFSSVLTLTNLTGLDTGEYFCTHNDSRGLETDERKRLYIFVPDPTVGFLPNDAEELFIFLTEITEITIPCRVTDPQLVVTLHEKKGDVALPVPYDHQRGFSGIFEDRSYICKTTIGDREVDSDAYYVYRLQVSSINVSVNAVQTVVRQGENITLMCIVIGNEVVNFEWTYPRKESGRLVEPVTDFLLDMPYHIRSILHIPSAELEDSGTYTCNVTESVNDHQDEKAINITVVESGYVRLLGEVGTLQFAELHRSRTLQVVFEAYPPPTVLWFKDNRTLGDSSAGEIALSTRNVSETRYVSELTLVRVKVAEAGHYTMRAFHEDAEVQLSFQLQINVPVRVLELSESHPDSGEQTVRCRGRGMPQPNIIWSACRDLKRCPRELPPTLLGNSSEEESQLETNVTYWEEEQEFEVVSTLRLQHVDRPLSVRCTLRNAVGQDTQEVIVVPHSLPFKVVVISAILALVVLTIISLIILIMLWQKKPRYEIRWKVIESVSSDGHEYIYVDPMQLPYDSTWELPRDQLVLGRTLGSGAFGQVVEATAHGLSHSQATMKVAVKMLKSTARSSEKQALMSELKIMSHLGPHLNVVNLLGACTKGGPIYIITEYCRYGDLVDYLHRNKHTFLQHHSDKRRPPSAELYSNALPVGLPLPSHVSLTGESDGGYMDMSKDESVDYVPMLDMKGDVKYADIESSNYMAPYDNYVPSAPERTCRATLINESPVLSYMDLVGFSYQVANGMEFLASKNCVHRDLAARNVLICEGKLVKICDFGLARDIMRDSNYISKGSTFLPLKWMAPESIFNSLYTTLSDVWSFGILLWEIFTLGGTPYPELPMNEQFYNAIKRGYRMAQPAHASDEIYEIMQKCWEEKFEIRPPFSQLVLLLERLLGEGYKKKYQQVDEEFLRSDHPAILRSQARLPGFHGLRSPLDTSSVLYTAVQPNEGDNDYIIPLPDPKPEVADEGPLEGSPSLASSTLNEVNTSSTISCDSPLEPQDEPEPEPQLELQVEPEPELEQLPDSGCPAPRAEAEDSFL
# Experimental: This assay measures the in vitro kinase activity of PDGFR using ELISA.
# 6. PDGFR-β expressing NlH 3T3 cell lysate.
# 1. Coat Corning 96 well ELISA plates with 0.5 μg 28D4C10 in 100 μL PBS per well, store overnight at 4° C.
# 5. Dilute lysate in HNTG (10 μg lysate/100 μL HNTG)
# as §1
# 8. Add 80 μL working kinase buffer mix to ELISA plate containing captured PDGFR.
# 9. Dilute test compound 1:10 in TBS in 96-well polypropylene plates (i.e., 10 μL compound+90 μL TBS).
# 10. Add 10 μL diluted test compound to ELISA plate.
# 11. Incubate for 30 minutes while shaking at room temperature.
# 12. Add 10 μL ATP directly to all wells except negative control well (final well volume should be approximately 100 μL with 20 μM ATP in each well.) Incubate 30 minutes while shaking.
# 13. After 30 minutes, stop reaction by adding 10 μL of 200 mM EDTA (pH 8.0) to each well.
# as §2, §3, §4
# 22. Read assay on Dynatech MR7000 ELISA reader: test filter: 410 nM, reference filter: 630 nM.
# [1] = Table 5, in vitro kinase activity, read-out: EGFr biochem IC50
# [2] = Table 5, in vitro kinase activity, read-out: PDGFr biochem IC50
# [3] = Table 4, in vitro kinase activity, read-out: bio EGFr IC50
# [4] = Table 4, in vitro kinase activity, read-out: bio PDGFr IC50
# [5] = Table 7, in vitro kinase activity, read-out: EGFr biochem IC50
# EGFR, sequence (P00533 25-1210): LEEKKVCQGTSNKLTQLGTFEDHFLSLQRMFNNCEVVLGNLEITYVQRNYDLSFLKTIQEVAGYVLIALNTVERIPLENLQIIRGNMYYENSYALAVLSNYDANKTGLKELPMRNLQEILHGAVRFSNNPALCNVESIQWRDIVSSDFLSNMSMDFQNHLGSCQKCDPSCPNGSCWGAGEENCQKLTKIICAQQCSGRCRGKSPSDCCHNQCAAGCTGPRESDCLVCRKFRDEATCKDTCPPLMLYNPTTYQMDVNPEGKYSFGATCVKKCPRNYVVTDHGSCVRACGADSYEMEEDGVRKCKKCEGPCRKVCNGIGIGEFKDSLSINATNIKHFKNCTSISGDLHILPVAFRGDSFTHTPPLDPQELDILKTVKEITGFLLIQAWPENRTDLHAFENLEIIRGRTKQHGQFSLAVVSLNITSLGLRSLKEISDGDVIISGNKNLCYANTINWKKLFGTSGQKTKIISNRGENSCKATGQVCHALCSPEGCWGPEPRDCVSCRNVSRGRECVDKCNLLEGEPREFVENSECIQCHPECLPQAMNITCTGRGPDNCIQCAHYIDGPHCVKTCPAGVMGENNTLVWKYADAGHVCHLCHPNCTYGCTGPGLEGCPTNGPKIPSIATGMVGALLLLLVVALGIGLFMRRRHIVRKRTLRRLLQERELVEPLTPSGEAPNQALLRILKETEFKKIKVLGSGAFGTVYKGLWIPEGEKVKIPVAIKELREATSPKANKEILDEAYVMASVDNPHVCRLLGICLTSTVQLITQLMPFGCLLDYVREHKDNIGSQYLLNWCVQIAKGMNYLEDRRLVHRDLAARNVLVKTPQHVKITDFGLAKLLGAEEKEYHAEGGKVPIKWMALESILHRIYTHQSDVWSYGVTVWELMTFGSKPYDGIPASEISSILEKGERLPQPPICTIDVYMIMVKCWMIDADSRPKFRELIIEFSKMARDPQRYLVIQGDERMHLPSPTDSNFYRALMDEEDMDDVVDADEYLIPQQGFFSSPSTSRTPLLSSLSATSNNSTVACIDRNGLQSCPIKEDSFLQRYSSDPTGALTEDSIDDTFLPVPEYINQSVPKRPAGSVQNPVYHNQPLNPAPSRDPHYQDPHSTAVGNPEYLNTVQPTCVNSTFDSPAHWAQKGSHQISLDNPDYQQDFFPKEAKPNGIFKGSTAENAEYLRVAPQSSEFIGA
Structure (SMILES),IC50 (EGFR; [1]) [µM],IC50 (Her2; Table 5) [µM],IC50 (PDGFR; [2]) [µM],IC50 (EGFR; [3]) [µM],IC50 (Her2; Table 4) [µM],IC50 (PDGFR; [4]) [µM],also measured
"CC(C)(C)c1cc(CC2C(=O)Nc3ccc(Cl)cc32)cc(Br)c1O (racemic) [AAI-28, 3-(3-Bromo-5-tert-butyl-4-hydroxybenzyl)-5-chloro-1,3-dihydroindol-2-one]",> 100,48,> 100,–,–,–,–
"COc1ccc2c(c1)NC(=O)C2Cc1ccc(OC)c(-c2ccsc2)c1 (stereo not drawn) [AAI-1, 6-Methoxy-3-(4-methoxy-3-thiophen-3-ylbenzyl)-1,3-dihydroindol-2-one]",> 100,> 100,> 100,–,–,–,–
"O=C(Nc1ccc2c(c1)NC(=O)C2Cc1cc(Cl)cc(Cl)c1O)C1CCCC1 (stereo not drawn) [AAI-2, Cyclopentanecarboxylic Acid [3-(3,5-Dichloro-2-hydroxybenzyl)-2-oxo-2,3-dihydro-1H-indol-6-yl]-amide]",> 100,50.5,> 100,–,–,–,–
"O=C(Nc1ccc2c(c1)NC(=O)C2Cc1cc(Cl)ccc1O)C1CCCC1 (stereo not drawn) [AAI-3, Cyclopentanecarboxylic Acid [3-(5-Chloro-2-hydroxybenzyl)-2-oxo-2,3-dihydro-1H-indol-6-yl]-amide]",> 100,> 100,> 100,–,–,–,–
"COc1ccc(-c2cc(CC3C(=O)Nc4ccccc43)c(O)cc2OC)cc1 (stereo not drawn) [AAI-4, 3-(4-Hydroxy-6,4′-dimethoxybiphenyl-3-ylmethyl)-1,3-dihydroindol-2-one]",> 100,> 100,> 100,–,–,–,–
"O=C1Nc2cccc(CCO)c2C1Cc1ccc(Br)cc1 (stereo not drawn) [AAI-14, 3-(4-Bromobenzyl)-4-(2-hydroxyethyl)-1,3-dihydroindol-2-one]",> 100,> 100,> 100,–,–,–,–
"CC(C)c1cc(CC2C(=O)Nc3ccc(Cl)cc32)cc(C(C)C)c1OCCN1CCOCC1 (stereo not drawn) [AAI-15, 5-Chloro-3-[3,5-diisopropyl-4-(2-morpholin-4-ylethoxy)-benzyl]-1,3-dihydroindol-2-one]",> 100,> 100,> 100,–,–,–,–
"Cc1[nH]c(CC2C(=O)Nc3ccc(Br)cc32)c(C)c1CCCN(C)C (stereo not drawn) [AAI-19, 5-Bromo-3-[4-(3-dimethylaminopropyl)-3,5-dimethyl-1H-pyrrol-2-ylmethyl]-1,3-dihydroindol-2-one]",> 100,> 100,0.25,–,–,–,–
"O=C1Nc2cc(-c3ccccc3)ccc2C1Cc1cc(Br)ccc1O (stereo not drawn) [AAI-26, 3-(5-Bromo-2-hydroxybenzyl)-6-phenyl-1,3-dihydroindol-2-one]",> 100,67.6,> 100,–,–,–,–
"COc1ccc(C=C2C(=O)Nc3cc(-c4cccnc4)ccc32)cc1-c1cccs1 [AHI-1, 3-(4-Methoxy-3-thiophen-2-yl-benzylidene)-6-pyridin-3-yl-1,3-dihydroindol-2-one]",–,–,–,> 100,> 100,> 100,–
"O=C1Nc2cc(-c3cccnc3)ccc2C1=Cc1ccccc1O [AHI-2, 3-(2-Hydroxybenzylidene)-6-pyridin-3-yl-1,3-dihydroindol-2-one]",–,–,–,> 100,31.5,49.9,–
"COc1ccc(C=C2C(=O)Nc3cc(-c4cccs4)ccc32)cc1-c1cccs1 [AHI-3, 3-(4-Methoxy-3-thiophen-2-yl-benzylidene)-6-thiophen-2-yl-1,3-dihydroindol-2-one]",–,–,–,> 100,> 100,> 100,–
"O=C1Nc2cc(-c3cccs3)ccc2C1=Cc1ccccc1O [AHI-4, 3-(2-Hydroxybenzylidene)-6-thiophen-2-yl-1,3-dihydroindol-2-one]",–,–,–,> 100,> 100,> 100,–
"COc1ccc(C=C2C(=O)Nc3cc(-c4ccsc4)ccc32)cc1-c1cccs1 [AHI-5, 3-(4-Methoxy-3-thiophen-2-yl-benzylidene)-6-thiophen-3-yl-1,3-dihydroindol-2-one]",–,–,–,> 100,> 100,> 100,–
"O=C1Nc2cc(-c3ccsc3)ccc2C1=Cc1ccccc1O [AHI-6, 3-(2-Hydroxybenzylidene)-6-thiophen-3-yl-1,3-dihydroindol-2-one]",–,–,–,> 100,57.3,76.6,–
"Cc1[nH]c(C=C2C(=O)Nc3cc(-c4cccnc4)ccc32)c(C)c1CCCN(C)C [AHI-7, 3-[4-(3-Dimethylaminopropyl)-3,5-dimethyl-1H-pyrrol-2-ylmethylene]-6-pyridin-3-yl-1,3-dihydroindol-2-one]",–,–,–,12.1,16.8,0.02,–
"Cc1[nH]c(C=C2C(=O)Nc3cc(-c4cccs4)ccc32)c(C)c1CCCN(C)C [AHI-8, 3-[4-(3-Dimethylaminopropyl)-3,5-dimethyl-1H-pyrrol-2-ylmethylene]-6-thiophen-2-yl-1,3-dihydroindol-2-one]",–,–,–,> 100,71,0.52,–
"COCCc1cccc2c1CC(=O)N2 [IN-018, 4-(2-Methoxy-ethyl)-1,3-dihydro-indol-2-one]",–,–,–,–,–,–,IC50 (EGFR; [5]): > 100 µM; IC50 (Her2; Table 7): > 100 µM
"CCOCCc1cccc2c1CC(=O)N2 [IN-019, 4-(2-Ethoxy-ethyl)-1,3-dihydro-indol-2-one]",–,–,–,–,–,–,IC50 (EGFR; [5]): > 100 µM; IC50 (Her2; Table 7): > 100 µM
"O=C1Cc2c(CCOc3cncc(Cl)c3)cccc2N1 [IN-021, 4-[2-(5-Chloro-pyridin-3-yloxy)-ethyl]1,3-dihydro-indol-2-one]",–,–,–,–,–,–,IC50 (EGFR; [5]): > 100 µM; IC50 (Her2; Table 7): > 100 µM
"CC(C)NC(=O)OCCc1cccc2c1CC(=O)N2 [IN-025, Isopropyl-carbamic acid 2-(2-oxo-2,3-dihydro-1H-indol-4-yl)-ethyl ester]",–,–,–,–,–,–,"IC50 (EGFR; [5]): > 100 µM; IC50 (Her2; Table 7): 3.9 µM; IC50 (PDGFR; Table 7, in vitro kinase activity, read-out: PDGFr biochem IC50): 70.8 µM"
